Reference: ChEMBL document CHEMBL1132307, “(2R,1'S,2'R,3'S)-2-(2'-Carboxy-3'-phenylcyclopropyl)glycine (PCCG-13), the first potent and selective competitive antagonist of phospholipase D-coupled metabotropic glutamate receptors: asymmetric synthesis and preliminary biological properties” (J Med Chem, 1999)

What was measured:
Type in all cases: functional, tissue-based
Details in all cases: Hippocampus
[1] = Antagonistic activity against phospholipase D (PLD) was determined in adult rat hippocampal slices
[2] = Agonistic activity against phospholipase D (PLD) was determined in adult rat hippocampal slices
[3] = Antagonistic activity against phospholipase C (PLC) was determined in adult rat hippocampal slices

Compound: CC(N)(C(=O)O)c1ccc(C(=O)O)cc1 (stereo unspecified)
- IC50 [1]: 530 µM
- EC50 [2]: 110 µM

Compound: NC(C(=O)O)[C@@H]1[C@H](C(=O)O)[C@H]1c1ccccc1 (stereo partly specified)
- IC50 [1]: 0.025 µM
- IC50 [3]: > 300 µM

Compound: N[C@H](C(=O)O)c1cc(O)cc(O)c1
- IC50 [1]: 70 µM

Compound: N[C@@]1(C(=O)O)CC[C@@H](C(=O)O)C1
- EC50 [2]: 30 µM
